Experimental data reported in US9670202B2, “Substituted triazolopyridines” (BAYER PHARMA AKTIENGESELLSCHAFT, priority 2013, dated 2017).
Structures can show the parent of a compound that is named as a salt.

Target: human kinase Mps-1 (Homo sapiens (Human), UniProt P33981)
Assay: Mps-1 kinase assay (TR-FRET, 10 μM ATP)
Type: biochemical
Conditions: N-terminally GST-tagged human full length recombinant Mps-1, read-out: Mps-1 Inhibition, IC50 (Assay with 10 μM ATP)
Method: The human kinase Mps-1 phosphorylates a biotinylated substrate peptide. Detection of the phosphorylated product is achieved by time-resolved fluorescence resonance energy transfer (TR-FRET) from Europium-labelled anti-phospho-Serine/Threonine antibody as donor to streptavidin labelled with cross-linked allophycocyanin (SA-XLent) as acceptor. Compounds are tested for their inhibition of the kinase activity.
N-terminally GST-tagged human full length recombinant Mps-1 kinase (purchased from Invitrogen, Karslruhe, Germany, cat. no PV4071) was used. As substrate for the kinase reaction a biotinylated peptide of the amino-acid sequence […]
The concentration of Mps-1 in the assay was adjusted to the activity of the enzyme lot and was chosen appropriate to have the assay in the linear range, typical enzyme concentrations were in the range of about 1 nM (final conc. in the 5 μl assay volume).
The resulting mixture was incubated 1 h at 22° C. to allow the binding of the phosphorylated peptide to the anti-phospho(Ser/Thr)-Europium-antibody. Subsequently the amount of phosphorylated substrate was evaluated by measurement of the resonance energy transfer from the Europium-labelled anti-phospho(Ser/Thr) antibody to the Streptavidin-XLent. Therefore, the fluorescence emissions at 620 nm and 665 nm after excitation at 350 nm was measured in a Viewlux TR-FRET reader (PerkinElmer LAS, Rodgau-Jügesheinn, Germany). The “blank-corrected normalized ratio” (a Viewlux specific readout, similar to the traditional ratio of the emissions at 665 nm and at 622 nm, in which blank and Eu-donor crosstalk are subtracted from the 665 nm signal before the ratio is calculated) was taken as the measure for the amount of phosphorylated substrate.

Chain of human kinase Mps-1 (P33981 whole entry): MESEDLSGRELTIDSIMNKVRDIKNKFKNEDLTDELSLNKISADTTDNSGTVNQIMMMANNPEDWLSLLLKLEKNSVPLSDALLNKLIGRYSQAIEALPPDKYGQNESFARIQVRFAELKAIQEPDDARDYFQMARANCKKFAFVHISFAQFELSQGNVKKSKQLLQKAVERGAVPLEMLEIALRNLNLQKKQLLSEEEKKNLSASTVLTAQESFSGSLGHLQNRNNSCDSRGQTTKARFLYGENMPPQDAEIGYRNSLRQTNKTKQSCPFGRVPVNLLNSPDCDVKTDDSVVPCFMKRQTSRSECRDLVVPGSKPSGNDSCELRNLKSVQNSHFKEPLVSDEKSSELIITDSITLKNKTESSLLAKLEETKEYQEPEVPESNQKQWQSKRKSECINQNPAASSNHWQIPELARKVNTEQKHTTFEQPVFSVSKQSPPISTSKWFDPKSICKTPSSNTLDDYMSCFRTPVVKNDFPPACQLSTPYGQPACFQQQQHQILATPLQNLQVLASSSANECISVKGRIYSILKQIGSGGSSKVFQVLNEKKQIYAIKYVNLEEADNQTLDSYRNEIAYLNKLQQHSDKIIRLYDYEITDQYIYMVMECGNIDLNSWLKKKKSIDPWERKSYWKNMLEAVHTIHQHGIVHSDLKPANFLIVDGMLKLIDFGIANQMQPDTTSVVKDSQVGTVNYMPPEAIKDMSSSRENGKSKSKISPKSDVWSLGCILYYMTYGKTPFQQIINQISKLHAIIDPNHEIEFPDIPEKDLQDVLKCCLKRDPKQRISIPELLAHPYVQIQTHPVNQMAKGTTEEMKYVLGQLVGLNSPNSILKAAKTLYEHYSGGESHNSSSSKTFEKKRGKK

| SMILES | IC50 |
| --- | --- |
| CCN(CC)C(=O)c1ccc(Nc2nc3ccc(N4CCN(C(=O)NCc5ccc(F)cc5)CC4)cn3n2)c(OCC(C)C)c1 [Example 01.06, 4-(2-{[4-(diethylcarbamoyl)-2-(2-methylpropoxy)phenyl]amino}[1,2,4]-triazolo[1,5-a]pyridin-6-yl)-N-(4-fluorobenzyl)piperazine-1-carboxamide trifluoroacetate] | 28.5 nM |
| CCOc1ncccc1Nc1nc2ccc(N3CCN(C(=O)NCc4ccc(F)cc4)CC3)cn2n1 [Example 01.13, 4-{2-[(2-ethoxypyridin-3-yl)amino][1,2,4]triazolo[1,5-a]pyridin-6-yl}-N-(4-fluorobenzyl)piperazine-1-carboxamide] | 8.9 nM |
| CCOc1ncccc1Nc1nc2ccc(N3CCC(NC(=O)Cc4ccc(F)cc4)CC3)cn2n1 [Example 04.03, N-(1-{2-[(2-ethoxypyridin-3-yl)amino][1,2,4]triazolo[1,5-a]pyridin-6-yl}-piperidin-4-yl)-2-(4-fluorophenyl)acetamide] | 32.8 nM |
| CCOc1cc(C(=O)N2CCOCC2)ccc1Nc1nc2ccc(N3CCC(C(=O)NCC4CC4)CC3)cn2n1 [Example 03.02, N-(cyclopropylmethyl)-1-(2-{[2-ethoxy-4-(morpholin-4-ylcarbonyl)phenyl]-amino}[1,2,4]triazolo[1,5-a]pyridin-6-yl)piperidine-4-carboxamide] | 67.8 nM |
| CCNC(=O)c1ccc(Nc2nc3ccc(N4CCC(NC(=O)Cc5ccc(F)cc5)CC4)cn3n2)c(OCC)c1 [Example 04.01, 3-ethoxy-N-ethyl-4-{[6-(4-{[(4-fluorophenyl)acetyl]amino}piperidin-1-yl)-[1,2,4]triazolo[1,5-a]pyridin-2-yl]amino}benzamide] | 7.1 nM |
| CCOc1cc(C(=O)N2CCOCC2)ccc1Nc1nc2ccc(N3CCC(NC(=O)Cc4ccc(F)cc4)CC3)cn2n1 [Example 04.02, N-[1-(2-{[2-ethoxy-4-(morpholin-4-ylcarbonyl)phenyl]amino}[1,2,4]-triazolo[1,5-a]pyridin-6-yl)piperidin-4-yl]-2-(4-fluorophenyl)acetamide] | 12.8 nM |
| COc1ncccc1Nc1nc2ccc(N3CCN(C(=O)NCc4ccc(F)cc4)CC3)cn2n1 [Example 01.12, N-(4-fluorobenzyl)-4-{2-[(2-methoxypyridin-3-yl)amino][1,2,4]triazolo[1,5-a]pyridin-6-yl}piperazine-1-carboxamide] | 18.6 nM |
| COc1cc(Nc2nc3ccc(N4CCN(C(=O)NCc5ccc(F)cc5)CC4)cn3n2)ccc1C(=O)N1CCOCC1 [Example 01.11, N-(4-fluorobenzyl)-4-(2-{[3-methoxy-4-(morpholin-4-ylcarbonyl)phenyl]-amino}[1,2,4]triazolo[1,5-a]pyridin-6-yl)piperazine-1-carboxamide] | 45.6 nM |
| CCNC(=O)c1ccc(Nc2nc3ccc(N4CCC(C(=O)NCC5CC5)CC4)cn3n2)c(OCC)c1 [Example 03.01, N-(cyclopropylmethyl)-1-(2-{[2-ethoxy-4-(ethylcarbamoyl)phenyl]amino}-[1,2,4]triazolo[1,5-a]pyridin-6-yl)piperidine-4-carboxamide] | 68.8 nM |
| CCN(CC)C(=O)c1ccc(Nc2nc3ccc(N4CCN(C(=O)NCc5ccc(F)cc5)CC4)cn3n2)c(OC)c1 [Example 01.03, 4-(2-{[4-(diethylcarbamoyl)-2-methoxyphenyl]amino}[1,2,4]triazolo[1,5-a]pyridin-6-yl)-N-(4-fluorobenzyl)piperazine-1-carboxamide] | 7.9 nM |
| CCOc1cc(C(=O)N2CCOCC2)ccc1Nc1nc2ccc(N3CCN(C(=O)NCc4ccc(F)cc4)CC3)cn2n1 [Example 01.04, 4-(2-{[2-ethoxy-4-(morpholin-4-ylcarbonyl)phenyl]amino}[1,2,4]triazolo-[1,5-a]pyridin-6-yl)-N-(4-fluorobenzyl)piperazine-1-carboxamide] | 2.6 nM |
| CCOc1cc(C(=O)N2CCOCC2)ccc1Nc1nc2ccc(N3CCC(C(=O)NCc4ccc(F)cc4)CC3)cn2n1 [Example 02.01, 1-(2-{[2-ethoxy-4-(morpholin-4-ylcarbonyl)phenyl]amino}[1,2,4]triazolo-[1,5-a]pyridin-6-yl)-N-(4-fluorobenzyl)piperidine-4-carboxamide] | 32.2 nM |
| CC(C)(C)NC(=O)c1ccc(Nc2nc3ccc(N4CCN(C(=O)NCc5ccc(F)cc5)CC4)cn3n2)c(OCC(F)(F)F)c1 [Example 01.02, 4-(2-{[4-(tert-butylcarbamoyl)-2-(2,2,2-trifluoroethoxy)phenyl]amino}-[1,2,4]triazolo[1,5-a]pyridin-6-yl)-N-(4-fluorobenzyl)piperazine-1-carboxamide] | 5.6 nM |
| CCN(CC)C(=O)c1ccc(Nc2nc3ccc(N4CCN(C(=O)NCc5ccc(F)cc5)CC4)cn3n2)c(OCCOC)c1 [Example 01.08, 4-(2-{[4-(diethylcarbamoyl)-2-(2-methoxyethoxy)phenyl]amino}[1,2,4]-triazolo[1,5-a]pyridin-6-yl)-N-(4-fluorobenzyl)piperazine-1-carboxamide] | 57 nM |
| N#Cc1ccccc1Nc1nc2ccc(N3CCN(C(=O)NCc4ccc(F)cc4)CC3)cn2n1 [Example 01.14, 4-{2-[(2-cyanophenyl)amino][1,2,4]triazolo[1,5-a]pyridin-6-yl}-N-(4-fluoro-benzyl)piperazine-1-carboxamide] | 8 nM |
| COc1cc(N2CCN(C)CC2)ccc1Nc1nc2ccc(N3CCN(C(=O)NCc4ccc(F)cc4)CC3)cn2n1 [Example 01.10, N-(4-fluorobenzyl)-4-(2-{[2-methoxy-4-(4-methylpiperazin-1-yl)phenyl]-amino}[1,2,4]triazolo[1,5-a]pyridin-6-yl)piperazine-1-carboxamide] | 9.2 nM |
| CCN(CC)C(=O)c1ccc(Nc2nc3ccc(N4CCN(C(=O)NCc5ccc(F)cc5)CC4)cn3n2)c(OCC2CC2)c1 [Example 01.07, 4-(2-{[2-(cyclopropylmethoxy)-4-(diethylcarbamoyl)phenyl]amino}[1,2,4]-triazolo[1,5-a]pyridin-6-yl)-N-(4-fluorobenzyl)piperazine-1-carboxamide] | 20.6 nM |
| O=C(NCc1ccc(F)cc1)NC1CCN(c2ccc3nc(Nc4ccc(C(=O)N5CCOCC5)cc4OCC(F)(F)F)nn3c2)C1 (stereo not drawn) [Example 05.01, 1-(4-fluorobenzyl)-3-[1-(2-{[4-(morpholin-4-ylcarbonyl)-2-(2,2,2-trifluoroethoxy)phenyl]amino}[1,2,4]triazolo[1,5-a]pyridin-6-yl)pyrrolidin-3-yl]urea] | 46.9 nM |
| CCCOc1cc(C(=O)N(CC)CC)ccc1Nc1nc2ccc(N3CCN(C(=O)NCc4ccc(F)cc4)CC3)cn2n1 [Example 01.05, 4-(2-{[4-(diethylcarbamoyl)-2-propoxyphenyl]amino}[1,2,4]triazolo[1,5-a]pyridin-6-yl)-N-(4-fluorobenzyl)piperazine-1-carboxamide] | 9.7 nM |
| CCN(CC)C(=O)c1ccc(Nc2nc3ccc(N4CCN(C(=O)NCc5ccc(F)cc5)CC4)cn3n2)c(OCC(F)(F)F)c1 [Example 01.09, 4-(2-{[4-(diethylcarbamoyl)-2-(2,2,2-trifluoroethoxy)phenyl]amino}[1,2,4]-triazolo[1,5-a]pyridin-6-yl)-N-(4-fluorobenzyl)piperazine-1-carboxamide trifluoroacetate] | 1.7 nM |
| CCNC(=O)c1ccc(Nc2nc3ccc(N4CCN(C(=O)NCc5ccc(F)cc5)CC4)cn3n2)c(OCC)c1 [Example 01.01, 4-(2-{[2-ethoxy-4-(ethylcarbamoyl)phenyl]amino}[1,2,4]triazolo[1,5-a]-pyridin-6-yl)-N-(4-fluorobenzyl)piperazine-1-carboxamide] | 3.1 nM |
